Measured values published in PubChem BioAssay AID248 (DTP/NCI, 2004).
Several values for one entry are separate records, joined by “and”; a condition that tells them apart may be missing. Equal entries are not always repeated. Toxic doses and inconclusive results are not listed. Cut-off read from the data, not from the text of the source: active = T/C of 150% or more; inactive = T/C below 125%.

System: L1210 leukemia ip in BDF1 mice, survival T/C
Assay: NCI In Vivo Anticancer Drug Screen. Data for tumor model L1210 Leukemia (intraperitoneal) in B6D2F1 (BDF1) mice
Conditions: endpoint: mean survival time, higher = longer survival
Outline: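 In this screen, tumor-bearing mice given compound are compared to those given vehicle, and their survival values are reported as a treated-to-control quotient.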

[1] = dose: 25.0 mg/kg/injection, schedule: Q01DX009 (ip), vehicle: Klucel (hydroxypropylcellulose) (HPC)
[2] = dose: 50.0 mg/kg/injection, schedule: Q01DX009 (ip), vehicle: Klucel (hydroxypropylcellulose) (HPC)
[3] = dose: 100.0 mg/kg/injection, schedule: Q01DX009 (ip), vehicle: Klucel (hydroxypropylcellulose) (HPC)
[4] = dose: 100.0 mg/kg/injection, schedule: Q04DX003 (ip), vehicle: Klucel (hydroxypropylcellulose) (HPC)
[5] = dose: 200.0 mg/kg/injection, schedule: Q01DX009 (ip), vehicle: Klucel (hydroxypropylcellulose) (HPC)
[6] = dose: 200.0 mg/kg/injection, schedule: Q04DX003 (ip), vehicle: Klucel (hydroxypropylcellulose) (HPC)
[7] = dose: 400.0 mg/kg/injection, schedule: Q01DX009 (ip), vehicle: Klucel (hydroxypropylcellulose) (HPC)
[8] = dose: 10.0 mg/kg/injection, schedule: Q01DX Z (ip), vehicle: saline
[9] = dose: 30.0 mg/kg/injection, schedule: Q01DX Z (ip), vehicle: saline
[10] = dose: 100.0 mg/kg/injection, schedule: Q01DX001 (ip), vehicle: saline
[11] = dose: 100.0 mg/kg/injection, schedule: Q01DX Z (ip), vehicle: saline
[12] = dose: 200.0 mg/kg/injection, schedule: Q01DX001 (ip), vehicle: saline
[13] = dose: 100.0 mg/kg/injection, schedule: Q01DX001 (ip), vehicle: carboxymethylcellulose (CMC)
[14] = dose: 200.0 mg/kg/injection, schedule: Q01DX001 (ip), vehicle: carboxymethylcellulose (CMC)
[15] = dose: 75.0 mg/kg/injection, schedule: Q01DX001 (ip), vehicle: saline
[16] = dose: 150.0 mg/kg/injection, schedule: Q01DX001 (ip), vehicle: saline
[17] = dose: 300.0 mg/kg/injection, schedule: Q01DX001 (ip), vehicle: saline
[18] = dose: 400.0 mg/kg/injection, schedule: Q01DX001 (ip), vehicle: saline
[19] = dose: 400.0 mg/kg/injection, schedule: Q01DX001 (ip), vehicle: saline with Tween-80
[20] = dose: 50.0 mg/kg/injection, schedule: Q04DX002 (ip), vehicle: saline with Tween-80
[21] = dose: 100.0 mg/kg/injection, schedule: Q04DX002 (ip), vehicle: saline with Tween-80

Measured: T/C

Sc1ccccc1.[Pb]
inactive: [1] 98 % of control | [2] 101 % of control | [3] 92 % of control and 87 % of control

N#Cc1ncc(C(Cl)Cl)nc1Cl
inactive: dose: 100.0 mg/kg/injection, schedule: Q04DX003 (ip), vehicle: saline 101 % of control | dose: 200.0 mg/kg/injection, schedule: Q04DX003 (ip), vehicle: saline 92 % of control

CCO/C(C)=N/c1n[n+]([O-])ccc1C
inactive: dose: 40.0 mg/kg/injection, schedule: Q04DX002 (ip), vehicle: saline 104 % of control | dose: 80.0 mg/kg/injection, schedule: Q04DX002 (ip), vehicle: saline 96 % of control | dose: 160.0 mg/kg/injection, schedule: Q04DX002 (ip), vehicle: saline 104 % of control

CC1(C)OCC(C(O)C(O)C2COC(C)(C)O2)O1 (stereo unspecified)
inactive: dose: 100.0 mg/kg/injection, schedule: Q04DX002 (ip), vehicle: saline 96 % of control | dose: 200.0 mg/kg/injection, schedule: Q04DX002 (ip), vehicle: saline 104 % of control | dose: 400.0 mg/kg/injection, schedule: Q04DX002 (ip), vehicle: saline 101 % of control

CCc1ccccc1NC(=O)Nc1ccc(Cl)c(Cl)c1
inactive: [3] 88 % of control | [4] 98 % of control | [5] 96 % of control | [6] 93 % of control | [7] 88 % of control | dose: 400.0 mg/kg/injection, schedule: Q04DX003 (ip), vehicle: Klucel (hydroxypropylcellulose) (HPC) 104 % of control

CC(=O)Nc1ccc(/C=C(\C#N)c2cccc3ccccc23)cc1
inactive: [3] 90 % of control | [5] 87 % of control | [7] 88 % of control

NCCCCC(N)C(=O)NCCCCCCNCCCCCCNC(=O)C(N)CCCCN (stereo unspecified)
inactive: [8] 95 % of control | [9] 95 % of control | [10] 90 % of control | [11] 95 % of control | [12] 103 % of control

CCCCN(CCCC)C(=O)C1C=C2c3cccc4[nH]cc(c34)CC2N(C)C1 (stereo unspecified)
inactive: dose: 100.0 mg/kg/injection, schedule: Q01DX009 (ip), vehicle: water 104 % of control | dose: 200.0 mg/kg/injection, schedule: Q01DX009 (ip), vehicle: water 110 % of control

CN(CC(=O)NCCCCCCCCCCNC(=O)CN(C)C(=O)OCc1ccccc1)C(=O)OCc1ccccc1
inactive: [8] 94 % of control | [9] 88 % of control | [11] 91 % of control | dose: 300.0 mg/kg/injection, schedule: Q01DX Z (ip), vehicle: saline 88 % of control

Nc1ccc2c(c1)-c1ccc(F)cc1C2
inactive: [13] 89 % of control | [14] 100 % of control | dose: 400.0 mg/kg/injection, schedule: Q01DX001 (ip), vehicle: carboxymethylcellulose (CMC) 94 % of control

CNC(CO)C1CCCCC1 (stereo unspecified)
inactive: [15] 100 % of control | [16] 102 % of control | [17] 101 % of control

N=C(N)SC1c2ccccc2-c2ccccc21
inactive: dose: 10.0 mg/kg/injection, schedule: Q04DX002 (ip), vehicle: Klucel (hydroxypropylcellulose) (HPC) 97 % of control | dose: 20.0 mg/kg/injection, schedule: Q04DX002 (ip), vehicle: Klucel (hydroxypropylcellulose) (HPC) 101 % of control | dose: 40.0 mg/kg/injection, schedule: Q04DX002 (ip), vehicle: Klucel (hydroxypropylcellulose) (HPC) 101 % of control

CCCCCCC(C)CC(CCCCCC)NCCOC(=O)c1ccc([N+](=O)[O-])cc1 (stereo unspecified)
inactive: [15] 105 % of control | [16] 100 % of control | [17] 121 % of control

O=[N+]([O-])c1ccc(S(=O)(=O)Cl)c(Cl)c1
inactive: [10] 100 % of control | [12] 96 % of control | [18] 92 % of control

Sc1ccccc1Cl
inactive: dose: 12.5 mg/kg/injection, schedule: Q01DX009 (ip), vehicle: Klucel (hydroxypropylcellulose) (HPC) 97 % of control | [1] 95 % of control | dose: 25.0 mg/kg/injection, schedule: Q04DX003 (ip), vehicle: Klucel (hydroxypropylcellulose) (HPC) 103 % of control | [2] 97 % of control | dose: 50.0 mg/kg/injection, schedule: Q04DX003 (ip), vehicle: Klucel (hydroxypropylcellulose) (HPC) 103 % of control | [4] 102 % of control

CC(=O)OCC1OC(N2CCc3ccccc32)C(OC(C)=O)C(OC(C)=O)C1OC(C)=O (stereo unspecified)
inactive: [10] 103 % of control | [12] 102 % of control | [18] 96 % of control

COc1cc2c(cc1OC)C(CCC(=O)O)=NCC2
inactive: dose: 12.5 mg/kg/injection, schedule: Q04DX002 (ip), vehicle: saline 101 % of control | dose: 25.0 mg/kg/injection, schedule: Q04DX002 (ip), vehicle: saline 104 % of control | dose: 50.0 mg/kg/injection, schedule: Q04DX002 (ip), vehicle: saline 90 % of control

O=C1NC(=O)C(CCCCCl)N1 (stereo unspecified)
inactive: [10] 91 % of control | [12] 87 % of control | [18] 94 % of control

Cc1ccccc1N=Nc1c(O)n(-c2ccccc2Cl)c(=S)n(-c2ccccc2)c1=O
inactive: dose: 50.0 mg/kg/injection, schedule: Q01DX001 (ip), vehicle: Klucel (hydroxypropylcellulose) (HPC) 98 % of control | dose: 100.0 mg/kg/injection, schedule: Q01DX001 (ip), vehicle: Klucel (hydroxypropylcellulose) (HPC) 100 % of control | dose: 200.0 mg/kg/injection, schedule: Q01DX001 (ip), vehicle: Klucel (hydroxypropylcellulose) (HPC) 96 % of control

CC(=O)c1ccc(N=C=O)cc1
inactive: [19] 95 % of control

CCCOc1cc(C)c2cc(Cc3cc(C)c4nc(OCCC)cc(C)c4c3)cc(C)c2n1
inactive: dose: 100.0 mg/kg/injection, schedule: Q01DX001 (ip), vehicle: other 87 % of control | dose: 200.0 mg/kg/injection, schedule: Q01DX001 (ip), vehicle: other 95 % of control | dose: 400.0 mg/kg/injection, schedule: Q01DX001 (ip), vehicle: other 101 % of control

O=C(Nc1ccc2c3c(cccc13)CC2)c1cccc([N+](=O)[O-])c1
inactive: dose: 100.0 mg/kg/injection, schedule: Q01DX001 (ip), vehicle: saline with Tween-80 102 % of control | dose: 200.0 mg/kg/injection, schedule: Q01DX001 (ip), vehicle: saline with Tween-80 94 % of control | [19] 96 % of control

Cc1ccc2c(c1)NP(=O)(c1ccccc1)S2 (stereo unspecified)
inactive: dose: 25.0 mg/kg/injection, schedule: Q04DX002 (ip), vehicle: saline with Tween-80 89 % of control | [20] 92 % of control | [21] 102 % of control and 89 % of control

Nc1nc(N)c2cc(CCc3ccccc3)ccc2n1
inactive: dose: 50.0 mg/kg/injection, schedule: Q01DX001 (ip), vehicle: carboxymethylcellulose (CMC) 95 % of control | [13] 95 % of control | [4] 95 % of control | [14] 101 % of control | [6] 90 % of control

CC(CC(c1ccccc1)c1ccccc1)[N+](C)(C)C (stereo unspecified)
inactive: dose: 5.0 mg/kg/injection, schedule: Q01DX001 (ip), vehicle: carboxymethylcellulose (CMC) 104 % of control | dose: 10.0 mg/kg/injection, schedule: Q01DX001 (ip), vehicle: carboxymethylcellulose (CMC) 101 % of control | dose: 20.0 mg/kg/injection, schedule: Q01DX001 (ip), vehicle: carboxymethylcellulose (CMC) 95 % of control | dose: 40.0 mg/kg/injection, schedule: Q01DX001 (ip), vehicle: carboxymethylcellulose (CMC) 93 % of control | dose: 80.0 mg/kg/injection, schedule: Q01DX001 (ip), vehicle: carboxymethylcellulose (CMC) 98 % of control

C=CCOCC(O)CO (stereo unspecified)
inactive: dose: 100.0 mg/kg/injection, schedule: Q01DX009 (ip), vehicle: saline 108 % of control | dose: 200.0 mg/kg/injection, schedule: Q01DX009 (ip), vehicle: saline 94 % of control | dose: 400.0 mg/kg/injection, schedule: Q01DX009 (ip), vehicle: saline 103 % of control

CC(=O)Nc1ccc(S(=O)(=O)Nc2ccc(N(CCCl)CCCl)cc2)cc1
inactive: [20] 107 % of control | [21] 110 % of control | dose: 200.0 mg/kg/injection, schedule: Q04DX002 (ip), vehicle: saline with Tween-80 107 % of control | dose: 400.0 mg/kg/injection, schedule: Q04DX002 (ip), vehicle: saline with Tween-80 110 % of control
